In patent US20100166846A1 (priority 2008, published 2010):
Where two headings read alike, the source gives them in different places.

What was measured:
[1] = rat liver
Excerpt: The tissue from the control animals (water) served as the 100% of the toxin remaining in the tissue. The animals receiving: • a.

[2] = humans, reference (7); cited from earlier work

SMILES: CN1C(=O)CN=C(c2ccccc2)c2cc(Cl)ccc21 [valium]
- tolerability in the animal (dog, in vivo): neither of which was tolerated

SMILES: N[C@@H](CCC(=O)N[C@@H](CS)C(=O)NCC(=O)O)C(=O)O [Plain glutathione, glutathione]
- removal of toxin ([1]; CO-60, intravenous administration): 70%
- removal of toxin ([1]; CO-60, oral administration): 10%
- absorption after oral ingestion [2]: not absorbed

SMILES: COc1ccccc1OCC(O)COC(N)=O (centres unmarked) [methocarbolmol]
- tolerability in the animal (canine with myoclonus, initial symptom management): neither of which was tolerated
